Measurements: ChEMBL document CHEMBL6121016, “Design, Synthesis, and Biological Evaluation of 1,3,4-Thiadiazole Derivatives as Novel Potent Peptide Deformylase Inhibitors for Combating Drug-Resistant Gram-Positive and -Negative Bacteria” (J Med Chem, 2025)
Converted amounts (≈) assume the structure as drawn.

Tests used:
[1] = tested on: Staphylococcus aureus; experiment: Antibacterial activity against methicillin-resistant Staphylococcus aureus ATCC 33591 after 16 to 18 hrs by broth microdilution method; assay type: functional; conditions: time 16-18 hrs
[2] = Acute toxicity in KM mouse infected with drug-resistant Acinetobacter baumannii assessed as pathological changes in liver at 40 mg/kg by HE staining based analysis; assay type: organism-based; conditions: in vivo
[3] = tested on: Acinetobacter baumannii; experiment: Antibacterial activity against Acinetobacter baumannii Bio 34235 after 16 to 18 hrs by broth microdilution method; assay type: functional; conditions: time 16-18 hrs
[4] = tested on: Staphylococcus aureus; experiment: Antibacterial activity against methicillin-resistant Staphylococcus aureus ATCC 43300 after 16 to 18 hrs by broth microdilution method; assay type: functional; conditions: time 16-18 hrs
[5] = tested on: Staphylococcus epidermidis; experiment: Antibacterial activity against Staphylococcus epidermidis after 16 to 18 hrs by broth microdilution method; assay type: functional; conditions: time 16-18 hrs
[6] = Acute toxicity in KM mouse infected with drug-resistant Acinetobacter baumannii assessed as survival rate at 40 mg/kg; assay type: organism-based; conditions: in vivo
[7] = tested on: Acinetobacter baumannii; experiment: Antibacterial activity against drug-resistant Acinetobacter baumannii Bio 53272 after 16 to 18 hrs by broth microdilution method; assay type: functional; conditions: time 16-18 hrs
[8] = tested on: Staphylococcus aureus; experiment: Antibacterial activity against methicillin-resistant Staphylococcus aureus Bio-090770 after 16 to 18 hrs by broth microdilution method; assay type: functional; conditions: time 16-18 hrs
[9] = tested on: Staphylococcus aureus; experiment: Antibacterial activity against methicillin-susceptible Staphylococcus aureus ATCC 29213 after 16 to 18 hrs by broth microdilution method; assay type: functional; conditions: time 16-18 hrs
[10] = Acute toxicity in KM mouse infected with drug-resistant Acinetobacter baumannii assessed as pathological changes in kidney at 40 mg/kg by HE staining based analysis; assay type: organism-based; conditions: in vivo
[11] = tested on: Staphylococcus aureus; experiment: Antibacterial activity against methicillin-susceptible Staphylococcus aureus ATCC 25923 after 16 to 18 hrs by broth microdilution method; assay type: functional; conditions: time 16-18 hrs
[12] = Acute toxicity in KM mouse infected with drug-resistant Acinetobacter baumannii assessed as pathological changes in lungs at 40 mg/kg by HE staining based analysis; assay type: organism-based; conditions: in vivo
[13] = tested on: Klebsiella pneumoniae; experiment: Antibacterial activity against Klebsiella pneumoniae CICC 21611 after 16 to 18 hrs by broth microdilution method; assay type: functional; conditions: time 16-18 hrs
[14] = tested on: Staphylococcus aureus; experiment: Antibacterial activity against methicillin-susceptible Staphylococcus aureus ATCC 13709 after 16 to 18 hrs by broth microdilution method; assay type: functional; conditions: time 16-18 hrs
[15] = Methemoglobin toxicity in human blood at 500 uM incubated for 6 hrs by MetHb content assay; assay type: tissue-based
[16] = tested on: Escherichia coli; experiment: Antibacterial activity against Escherichia coli ATCC 25922 after 16 to 18 hrs by broth microdilution method; assay type: functional; conditions: time 16-18 hrs
[17] = Cytotoxicity against human HEK293T cells assessed as cell viability at 3.125 to 100 uM incubated for 24 hrs by MTT assay; assay type: toxicity, cell-based, HEK-293T
[18] = Cytotoxicity against human HeLa cells assessed as cell viability at 3.125 to 100 uM incubated for 24 hrs by MTT assay; assay type: toxicity, cell-based
[19] = Aqueous solubility of compound at 0.9% aqueous NaCl solution incubated for 2 hrs by UV spectrophotometry analysis; assay type: physicochemical
[20] = tested on: Staphylococcus aureus; experiment: Bactericidal activity against methicillin-resistant Staphylococcus aureus assessed as bacteriostatic efficiency at 0.5 microg/mL incubated for 24 hrs by time killing analysis relative to control; assay type: functional; conditions: dose 0.5 µg/ml
[21] = tested on: Acinetobacter baumannii; experiment: Antibacterial activity against Acinetobacter baumannii Bio 120982 after 16 to 18 hrs by broth microdilution method; assay type: functional; conditions: time 16-18 hrs
[22] = tested on: Acinetobacter baumannii; experiment: Antibacterial activity against Acinetobacter baumannii Bio 24253 after 16 to 18 hrs by broth microdilution method; assay type: functional; conditions: time 16-18 hrs
[23] = tested on: Escherichia coli; experiment: Antibacterial activity against Escherichia coli ATCC 10661 after 16 to 18 hrs by broth microdilution method; assay type: functional; conditions: time 16-18 hrs
[24] = tested on: Escherichia coli; experiment: Antibacterial activity against Escherichia coli ATCC 10668 after 16 to 18 hrs by broth microdilution method; assay type: functional; conditions: time 16-18 hrs
[25] = tested on: Acinetobacter baumannii; experiment: Antibacterial activity against Acinetobacter baumannii Bio 53250 after 16 to 18 hrs by broth microdilution method; assay type: functional; conditions: time 16-18 hrs
[26] = tested on: Escherichia coli; experiment: Antibacterial activity against Escherichia coli ATCC 10663 after 16 to 18 hrs by broth microdilution method; assay type: functional; conditions: time 16-18 hrs
[27] = tested on: Acinetobacter baumannii; experiment: Antibacterial activity against Acinetobacter baumannii Bio 69680 after 16 to 18 hrs by broth microdilution method; assay type: functional; conditions: time 16-18 hrs
[28] = tested on: Acinetobacter baumannii; experiment: Antibacterial activity against Acinetobacter baumannii Bio 53272 after 16 to 18 hrs by broth microdilution method; assay type: functional; conditions: time 16-18 hrs
[29] = tested on: Klebsiella pneumoniae; experiment: Antibacterial activity against Klebsiella pneumoniae CICC 21092 after 16 to 18 hrs by broth microdilution method; assay type: functional; conditions: time 16-18 hrs
[30] = tested on: Klebsiella pneumoniae; experiment: Antibacterial activity against Klebsiella pneumoniae CICC 20093 after 16 to 18 hrs by broth microdilution method; assay type: functional; conditions: time 16-18 hrs
[31] = target: T1, Peptide deformylase (Staphylococcus aureus, UniProt P68826); experiment: Inhibition of Staphylococcus aureus PDF-Ni assessed as enzyme activity incubated for 30 min by fluorescamine method
T1 sequence (P68826 whole entry): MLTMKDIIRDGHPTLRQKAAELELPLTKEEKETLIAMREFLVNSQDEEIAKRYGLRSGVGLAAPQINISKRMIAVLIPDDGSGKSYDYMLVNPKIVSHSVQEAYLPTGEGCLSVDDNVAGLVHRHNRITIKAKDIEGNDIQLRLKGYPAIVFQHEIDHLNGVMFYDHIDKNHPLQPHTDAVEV

[32] = target: T2, Peptide deformylase (Escherichia coli, UniProt Q9JN24); experiment: Inhibition of Escherichia coli PDF-Ni assessed as enzyme activity incubated for 30 min by fluorescamine method
T2 sequence (Q9JN24 whole entry): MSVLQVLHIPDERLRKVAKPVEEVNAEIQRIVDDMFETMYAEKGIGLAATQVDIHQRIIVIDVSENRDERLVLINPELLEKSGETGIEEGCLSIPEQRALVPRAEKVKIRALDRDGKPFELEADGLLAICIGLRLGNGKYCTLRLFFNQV

| SMILES | MIC [1] [µg/mL] | MIC [3] [µg/mL] | MIC [4] [µg/mL] | MIC [5] [µg/mL] | MIC [7] [µg/mL] | MIC [8] [µg/mL] | MIC [9] [µg/mL] | MIC [11] [µg/mL] | MIC [13] [µg/mL] | MIC [14] [µg/mL] | MIC [16] [µg/mL] | IC50 at 24 h [17] [µM] | IC50 at 24 h [18] [µM] | solubility at 2 h [19] [µg/mL] | MIC [21] [µg/mL] | MIC [22] [µg/mL] | MIC [23] [µg/mL] | MIC [24] [µg/mL] | MIC [25] [µg/mL] | MIC [26] [µg/mL] | further results |
| --- | --- | --- | --- | --- | --- | --- | --- | --- | --- | --- | --- | --- | --- | --- | --- | --- | --- | --- | --- | --- | --- |
| O=C(O)c1cn(C2CC2)c2cc(N3CCNCC3)c(F)cc2c1=O [CIPROFLOXACIN] | 0.25 (≈ 0.754 µM) | 0.5 (≈ 1.51 µM) | 64 (≈ 193 µM) | 0.06 (≈ 0.181 µM) | 32 (≈ 96.6 µM) | 0.5 (≈ 1.51 µM) | 8 (≈ 24.1 µM) | 4 (≈ 12.1 µM) | 0.03 (≈ 0.0905 µM) | 8 (≈ 24.1 µM) | – | – | – | – | – | – | – | – | – | – | Activity [2]: Toxic; Activity [6]: Toxic; Activity [10]: Toxic; Activity [12]: Toxic |
| CCCC[C@H](CN(O)C=O)C(=O)N1CCC[C@H]1c1nnc(-c2ccc(Cl)s2)s1 | 0.25 (≈ 0.564 µM) | 32 (≈ 72.2 µM) | 0.25 (≈ 0.564 µM) | 0.5 (≈ 1.13 µM) | 16 (≈ 36.1 µM) | 1 (≈ 2.26 µM) | 1 (≈ 2.26 µM) | 1 (≈ 2.26 µM) | 32 (≈ 72.2 µM) | 1 (≈ 2.26 µM) | 32 (≈ 72.2 µM) | > 100 | > 100 | – | – | – | – | – | – | – | Activity [15]: Toxic |
| CCCC[C@H](CN(O)C=O)C(=O)N1CCC[C@H]1c1nnc(-c2ccc([N+](=O)[O-])cc2F)s1 | 0.125 (≈ 0.269 µM) | > 16 | 0.125 (≈ 0.269 µM) | 0.5 (≈ 1.07 µM) | > 16 | 0.5 (≈ 1.07 µM) | 0.5 (≈ 1.07 µM) | 0.25 (≈ 0.537 µM) | 16 (≈ 34.4 µM) | 0.5 (≈ 1.07 µM) | > 16 | > 100 | 91.7 | 2020 (≈ 4340 µM) | 16 (≈ 34.4 µM) | 32 (≈ 68.7 µM) | 8 (≈ 17.2 µM) | 16 (≈ 34.4 µM) | 16 (≈ 34.4 µM) | 8 (≈ 17.2 µM) | Activity [20]: 100%; MIC [27]: 16 µg/mL (≈ 34.4 µM); MIC [28]: 16 µg/mL (≈ 34.4 µM); MIC [29]: 32 µg/mL (≈ 68.7 µM); MIC [30]: 16 µg/mL (≈ 34.4 µM) |
| CCCC[C@H](CN(O)C=O)C(=O)N1CCC[C@H]1c1nnc(-c2ccc(C)s2)s1 | 0.25 (≈ 0.592 µM) | 32 (≈ 75.7 µM) | 0.25 (≈ 0.592 µM) | 1 (≈ 2.37 µM) | 16 (≈ 37.9 µM) | 2 (≈ 4.73 µM) | 2 (≈ 4.73 µM) | 4 (≈ 9.47 µM) | 32 (≈ 75.7 µM) | 2 (≈ 4.73 µM) | 64 (≈ 151 µM) | – | – | – | – | – | – | – | – | – | IC50 [31]: 0.0074 µM; IC50 [32]: 0.0985 µM |
| CCCC[C@H](CN(O)C=O)C(=O)N1CCC[C@H]1c1nnc(-c2ccc(-c3ccccn3)cc2)s1 | 0.125 (≈ 0.261 µM) | 32 (≈ 66.7 µM) | 0.25 (≈ 0.521 µM) | 1 (≈ 2.09 µM) | 32 (≈ 66.7 µM) | 0.5 (≈ 1.04 µM) | 0.5 (≈ 1.04 µM) | 0.25 (≈ 0.521 µM) | 32 (≈ 66.7 µM) | 0.5 (≈ 1.04 µM) | 64 (≈ 133 µM) | > 100 | 89 | 370 (≈ 771 µM) | 32 (≈ 66.7 µM) | 32 (≈ 66.7 µM) | 16 (≈ 33.4 µM) | 16 (≈ 33.4 µM) | 32 (≈ 66.7 µM) | 16 (≈ 33.4 µM) | IC50 [31]: 0.0043 µM; MIC [27]: 32 µg/mL (≈ 66.7 µM); MIC [28]: 32 µg/mL (≈ 66.7 µM); MIC [29]: 32 µg/mL (≈ 66.7 µM); MIC [30]: 16 µg/mL (≈ 33.4 µM); IC50 [32]: 0.124 µM |
| CCCC[C@H](CN(O)C=O)C(=O)N1CCC[C@H]1C(=O)Nc1ccc(F)c[n+]1[O-] | 0.125 (≈ 0.315 µM) | 32 (≈ 80.7 µM) | 0.25 (≈ 0.631 µM) | 0.25 (≈ 0.631 µM) | > 16 | 0.5 (≈ 1.26 µM) | 0.25 (≈ 0.631 µM) | 0.5 (≈ 1.26 µM) | 64 (≈ 161 µM) | 0.25 (≈ 0.631 µM) | 32 (≈ 80.7 µM) | > 100 | > 100 | 1650 (≈ 4160 µM) | 16 (≈ 40.4 µM) | 32 (≈ 80.7 µM) | 8 (≈ 20.2 µM) | 32 (≈ 80.7 µM) | 32 (≈ 80.7 µM) | 16 (≈ 40.4 µM) | MIC [27]: 16 µg/mL (≈ 40.4 µM); MIC [28]: 32 µg/mL (≈ 80.7 µM); MIC [29]: 64 µg/mL (≈ 161 µM); Activity [15]: Toxic; MIC [30]: 64 µg/mL (≈ 161 µM) |
